Reference: patent US6447786B1, “Blocking expression of virulence factors in S. aureus” (New York University, priority 1994, dated 2002)
No end group written: not given here.

Key:
Format in all cases: cell-based
[1] = system: RNAIII transcription of various S. aureus strains
[2] = system: RNAIII transcription of S. aureus RN8463
[3] = system: RNAIII transcription of S. aureus RN6607
[4] = system: agr transcription of S. aureus RN6390B

DICNAYF [S. lugdunensis pheromone]
S. aureus strains tested in which the agr response is inhibited [1]: 5 of 6

GVNACSSLF [peptide from RN6607, peptide purified from supernatant of strain with cloned agrBD genes of RN6607]
Effect of purified peptide on RNAIII transcription [2]: inhibitor effect | Effect of purified peptide on RNAIII transcription [3]: activator effect | Effect of purified peptide on RNAIII transcription [4]: inhibitor effect

YINCDFLL [peptide from RN8463, peptide purified from supernatant of strain with cloned agrBD genes of RN8463]
Effect of purified peptide on RNAIII transcription [2]: activator effect | Effect of purified peptide on RNAIII transcription [3]: inhibitor effect | Effect of purified peptide on RNAIII transcription [4]: inhibitor effect

YSTCDFIM [activator peptide]
Effect of purified peptide on RNAIII transcription [2]: inhibitor effect | Effect of purified peptide on RNAIII transcription [3]: inhibitor effect | Effect of purified peptide on RNAIII transcription [4]: activator effect
